Columns and labels:
Assay in all cases: Bliss excess, mean over the matrix (fraction); higher = more synergy
[1] = test system: A3-KAW (B-Cell Non-Hodgkin's Lymphoma)
In short: (§1)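 After 24 hours at 37°C and 5% CO2 in 1536-well plates, cells in DMEM/F12 or RPMI plus 10% FBS received two-drug dose matrices for 72 hours. Viability came from CellTiter-Glo 2.0 luminescence and was scaled as inhibition, anchored at 0 by vehicle wells and at 1 by blank wells. Combination Emax is taken as the second-highest inhibition in the matrix, and Bliss excess as the observed combination effect less EA + EB − EA·EB, with EA and EB the single-agent effects.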

FU97 (Gastric Carcinoma) = test system: FU97 (Gastric Carcinoma)
In short: as §1

[2] = test system: JSC-1 (B-Cell Non-Hodgkin's Lymphoma)
In short: as §1

[3] = test system: KARPAS-422 (B-Cell Non-Hodgkin's Lymphoma)
In short: as §1

NCI-H2591 (Mesothelioma) = test system: NCI-H2591 (Mesothelioma)
In short: as §1

U-2-OS (Osteosarcoma) = test system: U-2-OS (Osteosarcoma)
In short: as §1

COc1cccc(OCCCN)c1-c1cc(Nc2cnc(C#N)cn2)n[nH]1 [Prexasertib] + O=C(c1cc(Cc2n[nH]c(=O)c3ccccc23)ccc1F)N1CCN(C(=O)C2CC2)CC1 [Olaparib] (first compound max 1 µM, 7x7, partner max 10 µM)
Bliss excess [1]: -0.0146 | Bliss excess (FU97 (Gastric Carcinoma)): -0.0288 | Bliss excess [2]: -0.0179 | Bliss excess [3]: -0.044 | Bliss excess (NCI-H2591 (Mesothelioma)): -0.0683 | Bliss excess (U-2-OS (Osteosarcoma)): -0.0478

COc1cccc(OCCCN)c1-c1cc(Nc2cnc(C#N)cn2)n[nH]1 [Prexasertib] + C[C@@H]1COCCN1C2=NC(=NC(=C2)C3(CC3)[S@](=N)(=O)C)C4=C5C=CNC5=NC=C4 [AZD6738] (first compound max 1 µM, 7x7, partner max 10 µM)
Bliss excess [1]: 0.0104 | Bliss excess (FU97 (Gastric Carcinoma)): -0.0427 | Bliss excess [2]: -0.0089 | Bliss excess [3]: -0.0734 | Bliss excess (NCI-H2591 (Mesothelioma)): 0.0187 | Bliss excess (U-2-OS (Osteosarcoma)): -0.0426

COc1nnc2ccc(N3CCC(c4ccc(OCCN5CCN(C)C(=O)[C@H]5C)cc4)CC3)nn12 [AZD5153] + Cc1c2c(nn1C)CSCc1cc(n(C)n1)CSc1cc(c3ccccc3c1)OCCCc1c(C(=O)O)n(C)c3c-2c(Cl)ccc13 [AZD5991] (first compound max 1 µM, 7x7, partner max 1 µM)
Bliss excess [1]: -0.0289 | Bliss excess (FU97 (Gastric Carcinoma)): 0.0934 | Bliss excess [2]: -0.0542 | Bliss excess [3]: -0.0432 | Bliss excess (NCI-H2591 (Mesothelioma)): -0.0657 | Bliss excess (U-2-OS (Osteosarcoma)): 0.0074

COc1nnc2ccc(N3CCC(c4ccc(OCCN5CCN(C)C(=O)[C@H]5C)cc4)CC3)nn12 [AZD5153] + CCN(CCO)CCCOc1ccc2c(Nc3cc(CC(=O)Nc4cccc(F)c4)[nH]n3)ncnc2c1 [AZD2811] (first compound max 1 µM, 7x7, partner max 1 µM)
Bliss excess [1]: 0.0269 | Bliss excess (FU97 (Gastric Carcinoma)): -0.0048 | Bliss excess [2]: 0.0038 | Bliss excess [3]: -0.0472 | Bliss excess (NCI-H2591 (Mesothelioma)): -0.0181 | Bliss excess (U-2-OS (Osteosarcoma)): -0.0044

Cc1c2c(nn1C)CSCc1cc(n(C)n1)CSc1cc(c3ccccc3c1)OCCCc1c(C(=O)O)n(C)c3c-2c(Cl)ccc13 [AZD5991] + C[C@@H](Nc1cc(F)cc(F)c1)c1cc(C(=O)N(C)C)cc2c(=O)cc(N3CCOCC3)oc12 [AZD8186] (first compound max 1 µM, 7x7, partner max 3 µM)
Bliss excess [1]: -0.0084 | Bliss excess (FU97 (Gastric Carcinoma)): 0.0594 | Bliss excess [2]: -0.0289 | Bliss excess [3]: -0.0143 | Bliss excess (NCI-H2591 (Mesothelioma)): -0.0164 | Bliss excess (U-2-OS (Osteosarcoma)): -0.0073

NC1(C(=O)N[C@@H](CCO)c2ccc(Cl)cc2)CCN(c2ncnc3[nH]ccc23)CC1 [Capivasertib] + CC(C)n1c(=O)n(C)c2cnc3cc(F)c(-c4ccc(OCCCN5CCCCC5)nc4)cc3c21 [AZD1390] (first compound max 10 µM, 7x7, partner max 0.3 µM)
Bliss excess [1]: 0.0088 | Bliss excess (FU97 (Gastric Carcinoma)): -0.0099 | Bliss excess [2]: -0.0888 | Bliss excess [3]: -0.0685 | Bliss excess (NCI-H2591 (Mesothelioma)): -0.0804 | Bliss excess (U-2-OS (Osteosarcoma)): -0.0453

CC1(C)CCC(CN2CCN(c3ccc(C(=O)NS(=O)(=O)c4ccc(NCC5CCOCC5)c([N+](=O)[O-])c4)c(Oc4cnc5[nH]ccc5c4)c3)CC2)=C(c2ccc(Cl)cc2)C1 [Venetoclax] + Cc1cc2ncnn2cc1Nc1ncc2c(n1)n(C1CCOCC1)c(=O)n2C [AZD7648] (first compound max 1 µM, 7x7, partner max 10 µM)
Bliss excess [1]: 0.0185 | Bliss excess (FU97 (Gastric Carcinoma)): -0.0387 | Bliss excess [2]: -0.0103 | Bliss excess [3]: 0.0157 | Bliss excess (NCI-H2591 (Mesothelioma)): -0.0384 | Bliss excess (U-2-OS (Osteosarcoma)): -0.0178

Cc1c2c(nn1C)CSCc1cc(n(C)n1)CSc1cc(c3ccccc3c1)OCCCc1c(C(=O)O)n(C)c3c-2c(Cl)ccc13 [AZD5991] + CC1(C)CCC(CN2CCN(c3ccc(C(=O)NS(=O)(=O)c4ccc(NCC5CCOCC5)c([N+](=O)[O-])c4)c(Oc4cnc5[nH]ccc5c4)c3)CC2)=C(c2ccc(Cl)cc2)C1 [Venetoclax] (first compound max 1 µM, 7x7, partner max 1 µM)
Bliss excess [1]: 0.0191 | Bliss excess (FU97 (Gastric Carcinoma)): -0.0525 | Bliss excess [2]: 0.0155 | Bliss excess [3]: 0.205 | Bliss excess (NCI-H2591 (Mesothelioma)): -0.0252 | Bliss excess (U-2-OS (Osteosarcoma)): -0.0011

CC(=O)c1c(C)c2cnc(Nc3ccc(N4CCNCC4)cn3)nc2n(C2CCCC2)c1=O [Palbociclib] + CN(CC[C@H](CSC1=CC=CC=C1)NC2=C(C=C(C=C2)S(=O)(=O)NC(=O)C3=CC=C(C=C3)N4CCC(CC4)[C@H](C5=CC=CC=C5C6=CC=C(C=C6)Cl)O)S(=O)(=O)C(F)(F)F)CCO [AZD4320] (first compound max 10 µM, 7x7, partner max 1 µM)
Bliss excess [1]: 0.0082 | Bliss excess [2]: -0.0418 | Bliss excess (NCI-H2591 (Mesothelioma)): -0.0845 | Bliss excess (U-2-OS (Osteosarcoma)): -0.0727

COc1nnc2ccc(N3CCC(c4ccc(OCCN5CCN(C)C(=O)[C@H]5C)cc4)CC3)nn12 [AZD5153] + CN(CC[C@H](CSC1=CC=CC=C1)NC2=C(C=C(C=C2)S(=O)(=O)NC(=O)C3=CC=C(C=C3)N4CCC(CC4)[C@H](C5=CC=CC=C5C6=CC=C(C=C6)Cl)O)S(=O)(=O)C(F)(F)F)CCO [AZD4320] (first compound max 1 µM, 7x7, partner max 1 µM)
Bliss excess [1]: -0.0232 | Bliss excess [2]: -0.0243 | Bliss excess (NCI-H2591 (Mesothelioma)): 0.0088 | Bliss excess (U-2-OS (Osteosarcoma)): 0.0178

CCc1c2c(nc3ccc(O)cc13)-c1cc3c(c(=O)n1C2)COC(=O)[C@]3(O)CC [SN-38] + O=C(c1cc(Cc2n[nH]c(=O)c3ccccc23)ccc1F)N1CCN(C(=O)C2CC2)CC1 [Olaparib] (first compound max 0.3 µM, 7x7, partner max 10 µM)
Bliss excess (FU97 (Gastric Carcinoma)): -0.0043 | Bliss excess [2]: -0.0044 | Bliss excess [3]: 0.0276 | Bliss excess (NCI-H2591 (Mesothelioma)): -0.0219 | Bliss excess (U-2-OS (Osteosarcoma)): 0.0159

CC(=O)Nc1cccc(-n2c(=O)n(C3CC3)c(=O)c3c(Nc4ccc(I)cc4F)n(C)c(=O)c(C)c32)c1 [Trametinib] + Cc1nc(-c2cn3c(n2)-c2ccc(-c4cnn(C(C)(C)C(N)=O)c4)cc2OCC3)n(C(C)C)n1 [Taselisib] (first compound max 1 µM, 7x7, partner max 10 µM)
Bliss excess [1]: 0.173 | Bliss excess [2]: 0.218 | Bliss excess [3]: 0.0204 | Bliss excess (NCI-H2591 (Mesothelioma)): 0.0206 | Bliss excess (U-2-OS (Osteosarcoma)): 0.122

— the supplement of paper PMC11061612
